Experimental findings from US20120101136A1, “5-MEMBERED HETEROARYL DERIVATIVES USED AS SPHINGOSINE 1- PHOSPHATE RECEPTOR AGONISTS” (GLAXO GROUP LIMITED, priority 2009, published 2012) are described below.

pEC50: −log10 of the molar value.

T1 sequence (P21453 whole entry, the tested form may be a part): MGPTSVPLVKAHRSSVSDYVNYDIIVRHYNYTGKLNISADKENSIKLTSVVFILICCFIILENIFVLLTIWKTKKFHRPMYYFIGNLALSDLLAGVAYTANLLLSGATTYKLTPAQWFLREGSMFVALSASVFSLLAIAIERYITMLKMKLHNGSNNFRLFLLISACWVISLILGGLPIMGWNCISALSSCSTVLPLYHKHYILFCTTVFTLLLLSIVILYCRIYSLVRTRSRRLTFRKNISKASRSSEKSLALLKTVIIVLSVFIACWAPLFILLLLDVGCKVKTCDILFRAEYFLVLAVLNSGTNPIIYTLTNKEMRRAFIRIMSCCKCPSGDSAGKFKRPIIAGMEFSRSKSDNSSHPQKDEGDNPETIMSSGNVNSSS

The experiment has as its target T1, S1P1 receptor (human Endothelial Differentiation Gene 1 (EDG1)) (Homo sapiens, UniProt P21453).
T1 construct: TEV protease site; Gal4-VP16 transcription factor; expressed in transfected cells; host or cells: Tango GPCR-bla U2OS parental cell line (EDG1-bla/U2OS)
Briefly: S1P1 Tango Assay - 384 Well Format (EDG1-bla/U2OS cells). Type of experiment: cell-based. The note with it: agonist, beta-lactamase reporter. How it is done:
Recombinant EDG1-bla/U2OS cells (contain the human Endothelial Differentiation Gene 1 (EDG1) linked to a TEV protease site and a Gal4-VP16 transcription factor stably integrated into the Tango GPCR-bla U2OS parental cell line) were harvested from growth medium and passaged into assay medium (Invitrogen Freestyle Expression Medium). The cells were starved for 24 hours at 37° C., 5% CO2, harvested and resuspended in assay medium at a density of ˜200,000 cells/ml.
All test compounds were dissolved in DMSO at a concentration of 10 mM and were prepared in 100% DMSO to provide 10 point dose response curves. Test compounds prepared by Bravo (Velocity 11) were added to wells in columns 2-11 and 13-22; DMSO was added to wells in columns 12 and 23 as unstimulated controls and assay medium was added to wells in columns 1 and 24 as cell-free controls. An S1P1 agonist was added to wells in row 2, columns 2-11 as stimulated controls and test compounds were added to wells in row 2, columns 13-22 and rows 3-15, columns 2-11/13-22 (row 1 and 16 were empty and not used). Compounds in solution were added to the assay plate (Greiner 781090) using an Echo (Labcyte) dose-response program (50 nl/well). The unstimulated and cell-free controls were loaded with 50 nl/well pure DMSO to ensure that the DMSO concentration was constant across the plate for all assays.
50 μl of the cell suspension was added to each well in columns 2-23 of the plate (˜10,000 cells per well). 50 μl of assay medium was added to each well in the cell-free controls (columns 1 and 24). The cells were incubated overnight at 37° C./5% CO2.
10 μl of 6× substrate mixture (LiveBLAzer™-FRET B/G substrate (CCF4-AM) Cat # K1096 from Invitrogen, Inc.) was added to each well using Bravo and the plates incubated at room temperature for 2 h in the dark. The plate was finally read on EnVision using one excitation channel (409 nm) and two emission channels (460 nm and 530 nm).
The blue/green emission ratio (460 nm/530 nm) was calculated for each well, by dividing the background-subtracted Blue emission values by the background-subtracted Green emission values. The dose response curve is based on sigmoidal dose-response model. All ratio data was normalized based upon the maximum emission ratio of positive control and minimum emission ratio of negative control (DMSO) on each plate. The intrinsic activity (IA) of each compound would be the normalized percentage of its maximum response after curve fitting.
In turn, `Cc1cc(OCCCC(=O)O)ccc1-c1noc(-c2ccc(OC(C)C)c(Cl)c2)n1` [Example 1, 4-{[4-(5-{3-Chloro-4-[(1-methylethyl)oxy]phenyl}-1,2,4-oxadiazol-3-yl)-3-methylphenyl]oxy}butanoic acid] showed a pEC50 of at least 10.00. Next, `Cc1cc(OCCCCC(=O)O)ccc1-c1noc(-c2ccc(OC(C)C)c(Cl)c2)n1` [Example 2, 5-{[4-(5-{3-Chloro-4-[(1-methylethyl)oxy]phenyl}-1,2,4-oxadiazol-3-yl)-3-methylphenyl]oxy}pentanoic acid]: at least 9.00; `Cc1cc(OCC(=O)O)ccc1-c1noc(-c2ccc(OC(C)C)c(Cl)c2)n1` [Example 3, {[4-(5-{3-Chloro-4-[(1-methylethyl)oxy]phenyl}-1,2,4-oxadiazol-3-yl)-3-methylphenyl]oxy}acetic acid]: at least 9.00; `CNCCOc1ccc(-c2noc(-c3ccc(OC(C)C)c(Cl)c3)n2)c(C)c1` [Example 5, 2-{[4-(5-{3-Chloro-4-[(1-methylethyl)oxy]phenyl}-1,2,4-oxadiazol-3-yl)-3-methylphenyl]oxy}-N-methylethanamine]: at least 8.00.

In the case of `COCCOc1ccc(-c2noc(-c3ccc(OC(C)C)c(Cl)c3)n2)c(C)c1` [Example 6, 5-{3-Chloro-4-[(1-methylethyl)oxy]phenyl}-3-(2-methyl-4-{[2-(methyloxy)ethyl]oxy}phenyl)-1,2,4-oxadiazole], the pEC50 is at least 8.00. Next, `CC(C)Oc1ccc(-c2nc(-c3ccc(OCCCCC(=O)O)cc3Cl)no2)cc1C#N` [Example 7, 5-{[3-Chloro-4-(5-{3-cyano-4-[(1-methylethyl)oxy]phenyl}-1,2,4-oxadiazol-3-yl)phenyl]oxy}pentanoic acid]: at least 10.00; `CC(C)Oc1ccc(-c2nc(-c3ccc(OCCCCC(=O)O)cc3)no2)cc1C#N` [Example 8, 5-{[4-(5-{3-Cyano-4-[(1-methylethyl)oxy]phenyl}-1,2,4-oxadiazol-3-yl)phenyl]oxy}pentanoic acid]: at least 9.00. Next, `CC(C)Oc1ccc(-c2nc(-c3ccc(OCC(=O)O)cc3Cl)no2)cc1C#N` [Example 9, {[3-Chloro-4-(5-{3-cyano-4-[(1-methylethyl)oxy]phenyl}-1,2,4-oxadiazol-3-yl)phenyl]oxy}acetic acid]: at least 8.00. Next, `CC(C)Oc1ccc(-c2nc(-c3ccc(OCCCC(=O)O)cc3Cl)no2)cc1C#N` [Example 10, 4-{[3-Chloro-4-(5-{3-cyano-4-[(1-methylethyl)oxy]phenyl}-1,2,4-oxadiazol-3-yl)phenyl]oxy}butanoic acid]: at least 10.00; `CC(C)Oc1ccc(-c2nc(-c3ccc(OCCCCC(=O)O)cc3F)no2)cc1C#N` [Example 11, 5-{[4-(5-{3-Cyano-4-[(1-methylethyl)oxy]phenyl}-1,2,4-oxadiazol-3-yl)-3-fluorophenyl]oxy}pentanoic acid]: at least 9.00; `COc1cc(OCCCCC(=O)O)ccc1-c1noc(-c2ccc(OC(C)C)c(C#N)c2)n1` [Example 12, 5-{[4-(5-{3-Cyano-4-[(1-methylethyl)oxy]phenyl}-1,2,4-oxadiazol-3-yl)-3-(methyloxy)phenyl]oxy}pentanoic acid]: at least 9.00. The compound `CCc1cc(OCCCNC)ccc1-c1nnc(-c2ccc(OC(C)C)c(C#N)c2)s1` [Example 13, 5-[5-(2-ethyl-4-{[3-(methylamino)propyl]oxy}phenyl)-1,3,4-thiadiazol-2-yl]-2-[(1-methylethyl)oxy]benzonitrile] gave a pEC50 of at least 6.00.

The compound `CCc1cc(OCCCNC)ccc1-c1nnc(-c2ccc(OC(C)C)c(C#N)c2)o1` [Example 14, 5-[5-(2-ethyl-4-{[3-(methylamino)propyl]oxy}phenyl)-1,3,4-oxadiazol-2-yl]-2-[(1-methylethyl)oxy]benzonitrile] had a pEC50 of at least 7.00. In turn, `CCc1cc(OCCCC(=O)O)ccc1-c1nnc(-c2ccc(OC(C)C)c(C#N)c2)o1` [Example 15, 4-{[4-(5-{3-cyano-4-[(1-methylethyl)oxy]phenyl}-1,3,4-oxadiazol-2-yl)-3-ethylphenyl]oxy}butanoic acid] showed a pEC50 of at least 9.00. In turn, `CCc1cc(OCCCC(=O)O)ccc1-c1nnc(-c2ccc(OC(C)C)c(C#N)c2)s1` [Example 16, 4-{[4-(5-{3-cyano-4-[(1-methylethyl)oxy]phenyl}-1,3,4-thiadiazol-2-yl)-3-ethylphenyl]oxy}butanoic acid] showed a pEC50 of at least 9.00.

Regarding `CC(C)Oc1ccc(-c2nc(-c3ccc(OCCCCN(C)C)cc3Cl)no2)cc1C#N` [Example 17, 5-[3-(2-chloro-4-{[4-(dimethylamino)butyl]oxy}phenyl)-1,2,4-oxadiazol-5-yl]-2-[(1-methylethyl)oxy]benzonitrile], the pEC50 is at least 8.00. Next, `CC(C)NCCCCOc1ccc(-c2noc(-c3ccc(OC(C)C)c(C#N)c3)n2)c(Cl)c1` [Example 18, 5-{3-[2-chloro-4-({4-[(1-methylethyl)amino]butyl}oxy)phenyl]-1,2,4-oxadiazol-5-yl}-2-[(1-methylethyl)oxy]benzonitrile]: at least 8.00; `CCCNCCCCOc1ccc(-c2noc(-c3ccc(OC(C)C)c(C#N)c3)n2)c(Cl)c1` [Example 19, 5-[3-(2-chloro-4-{[4-(propylamino)butyl]oxy}phenyl)-1,2,4-oxadiazol-5-yl]-2-[(1-methylethyl)oxy]benzonitrile]: at least 8.00; `CCNCCCCOc1ccc(-c2noc(-c3ccc(OC(C)C)c(C#N)c3)n2)c(Cl)c1` [Example 20, 5-[3-(2-chloro-4-{[4-(ethylamino)butyl]oxy}phenyl)-1,2,4-oxadiazol-5-yl]-2-[(1-methylethyl)oxy]benzonitrile]: at least 8.00.

On to `CNCCCCOc1ccc(-c2noc(-c3ccc(OC(C)C)c(C#N)c3)n2)c(Cl)c1` [Example 21, 5-[3-(2-chloro-4-{[4-(methylamino)butyl]oxy}phenyl)-1,2,4-oxadiazol-5-yl]-2-[(1-methylethyl)oxy]benzonitrile], for which the pEC50 was at least 9.00. Next, `CC(C)Oc1ccc(-c2nc(-c3ccc(OCCCC(=O)O)cc3F)no2)cc1C#N` [Example 22, 4-{[4-(5-{3-cyano-4-[(1-methylethyl)oxy]phenyl}-1,2,4-oxadiazol-3-yl)-3-fluorophenyl]oxy}butanoic acid]: at least 10.00. Next, `CC(C)Oc1ccc(-c2nc(-c3ccc(OCC(=O)O)cc3F)no2)cc1C#N` [Example 23, {[4-(5-{3-cyano-4-[(1-methylethyl)oxy]phenyl}-1,2,4-oxadiazol-3-yl)-3-fluorophenyl]oxy}acetic acid]: at least 7.00. `CC(C)Oc1ccc(-c2nc(-c3ccc(OCCCC(=O)O)cc3)no2)cc1C#N` [Example 24, 4-{[4-(5-{3-cyano-4-[(1-methylethyl)oxy]phenyl}-1,2,4-oxadiazol-3-yl)phenyl]oxy}butanoic acid] had a pEC50 of at least 9.00. Next, `CC(C)Oc1ccc(-c2nc(-c3ccc(OCC(=O)O)cc3)no2)cc1C#N` [Example 25, {[4-(5-{3-cyano-4-[(1-methylethyl)oxy]phenyl}-1,2,4-oxadiazol-3-yl)phenyl]oxy}acetic acid]: at least 7.00; `CCc1cc(OCCNC)ccc1-c1noc(-c2ccc(OC(C)C)c(Cl)c2)n1` [Example 26, (2-{[4-(5-{3-chloro-4-[(1-methylethyl)oxy]phenyl}-1,2,4-oxadiazol-3-yl)-3-ethylphenyl]oxy}ethyl)methylamine]: at least 8.00; `CCc1cc(OCC(=O)O)ccc1-c1noc(-c2ccc(OC(C)C)c(C#N)c2)n1` [Example 27, {[4-(5-{3-cyano-4-[(1-methylethyl)oxy]phenyl}-1,2,4-oxadiazol-3-yl)-3-ethylphenyl]oxy}acetic acid]: at least 9.00. Next, `CCc1cc(OCC(=O)O)ccc1-c1noc(-c2ccc(OC(C)C)c(Cl)c2)n1` [Example 28, {[4-(5-{3-chloro-4-[(1-methylethyl)oxy]phenyl}-1,2,4-oxadiazol-3-yl)-3-ethylphenyl]oxy}acetic acid]: at least 9.00; `CCc1cc(OCCCCC(=O)O)ccc1-c1noc(-c2ccc(OC(C)C)c(Cl)c2)n1` [Example 29, 5-{[4-(5-{3-chloro-4-[(1-methylethyl)oxy]phenyl}-1,2,4-oxadiazol-3-yl)-3-ethylphenyl]oxy}pentanoic acid]: at least 9.00. Next, `CCc1cc(OCCCC(=O)O)ccc1-c1noc(-c2ccc(OC(C)C)c(Cl)c2)n1` [Example 30, 4-{[4-(5-{3-chloro-4-[(1-methylethyl)oxy]phenyl}-1,2,4-oxadiazol-3-yl)-3-ethylphenyl]oxy}butanoic acid]: at least 10.00.
